The results in this text go back to the supplement of paper PMC10307832.

Common to all, as to experiment: relative viability (nuclei count vs DMSO), 5 days (fraction); higher = more cells survive
Compound in the assay “Olaparib + Tozasertib”: O=C(c1cc(Cc2n[nH]c(=O)c3ccccc23)ccc1F)N1CCN(C(=O)C2CC2)CC1 [Olaparib] + Cc1cc(Nc2cc(N3CCN(C)CC3)nc(Sc3ccc(NC(=O)C4CC4)cc3)n2)n[nH]1 [Tozasertib] (partner 0.1 µM)
An outline of the steps:
(§1)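 Relative viability was taken as the ratio of nuclei in treated wells to nuclei in vehicle wells. Lung cancer cell lines in 1536-well plates received compounds by pin tool one day after seeding, either one drug alone or a fixed anchor-drug dose plus five library-drug doses (not always all listed) in √10 steps. Nuclei were counted on 4× images after 5 days of treatment, and values are medians of duplicate plates.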

Compound in the assay “Olaparib + Palbociclib”: O=C(c1cc(Cc2n[nH]c(=O)c3ccccc23)ccc1F)N1CCN(C(=O)C2CC2)CC1 [Olaparib] + CC(=O)c1c(C)c2cnc(Nc3ccc(N4CCNCC4)cn3)nc2n(C2CCCC2)c1=O [Palbociclib] (partner 0.5 µM)
An outline of the steps:
as §1

Compound in the assay “Crizotinib + Pictilisib”: C[C@@H](Oc1cc(-c2cnn(C3CCNCC3)c2)cnc1N)c1c(Cl)ccc(F)c1Cl [Crizotinib] + CS(=O)(=O)N1CCN(Cc2cc3nc(-c4cccc5[nH]ncc45)nc(N4CCOCC4)c3s2)CC1 [Pictilisib] (partner 1 µM)
The essentials: as §1

Compound in the assay “Olaparib + Pictilisib”: O=C(c1cc(Cc2n[nH]c(=O)c3ccccc23)ccc1F)N1CCN(C(=O)C2CC2)CC1 [Olaparib] + CS(=O)(=O)N1CCN(Cc2cc3nc(-c4cccc5[nH]ncc45)nc(N4CCOCC4)c3s2)CC1 [Pictilisib] (partner 1 µM)
The essentials:
as §1

With LOU-NH91, the relative viability with Olaparib + Tozasertib (first compound 0.08 µM) was determined as 0.729; with Olaparib + Tozasertib (first compound 0.253 µM), 0.674; with Olaparib + Tozasertib (first compound 2.53 µM) it was 0.637; in the assay with Olaparib + Tozasertib (first compound 8 µM), 0.628; with Olaparib + Palbociclib (first compound 0.08 µM), 0.55; with Olaparib + Palbociclib (first compound 0.253 µM), 0.538. The relative viability turned out to be 0.526 with Olaparib + Palbociclib (first compound 2.53 µM); 0.533 in the assay with Olaparib + Palbociclib (first compound 8 µM); 0.45 with Crizotinib + Pictilisib (first compound 0.01 µM); 0.531 with Crizotinib + Pictilisib (first compound 0.03162 µM); 0.618 in the assay with Crizotinib + Pictilisib (first compound 0.1 µM); 0.515 with Crizotinib + Pictilisib (first compound 0.3162 µM). The relative viability stood at 0.484 with Crizotinib + Pictilisib (first compound 1 µM); 0.559 with Olaparib + Pictilisib (first compound 0.08 µM); 0.524 with Olaparib + Pictilisib (first compound 0.253 µM); 0.515 with Olaparib + Pictilisib (first compound 2.53 µM); 0.503 with Olaparib + Pictilisib (first compound 8 µM).

As to EKVX, the relative viability with Olaparib + Tozasertib (first compound 0.08 µM) was determined as 0.441; in the assay with Olaparib + Tozasertib (first compound 0.253 µM) it was 0.352; in the assay with Olaparib + Tozasertib (first compound 2.53 µM), 0.388; in the assay with Olaparib + Tozasertib (first compound 8 µM), 0.445; with Olaparib + Palbociclib (first compound 0.08 µM), 0.38; in the assay with Olaparib + Palbociclib (first compound 0.253 µM), 0.364. For the same cell line, the relative viability amounted to 0.371 in the assay with Olaparib + Palbociclib (first compound 2.53 µM); 0.41 with Olaparib + Palbociclib (first compound 8 µM); 0.406 with Crizotinib + Pictilisib (first compound 0.01 µM); 0.419 with Crizotinib + Pictilisib (first compound 0.03162 µM); 0.463 with Crizotinib + Pictilisib (first compound 0.1 µM); 0.453 with Crizotinib + Pictilisib (first compound 0.3162 µM). Besides, the relative viability with Crizotinib + Pictilisib (first compound 1 µM) is 0.47; with Olaparib + Pictilisib (first compound 0.08 µM), 0.493; with Olaparib + Pictilisib (first compound 0.253 µM) it was 0.444; with Olaparib + Pictilisib (first compound 2.53 µM) it was 0.41; in the assay with Olaparib + Pictilisib (first compound 8 µM), 0.477.

Take SK-LU-1: the relative viability with Olaparib + Tozasertib (first compound 0.08 µM) amounted to 0.355; in the assay with Olaparib + Tozasertib (first compound 0.253 µM), 0.323; with Olaparib + Tozasertib (first compound 2.53 µM) it was 0.335; with Olaparib + Tozasertib (first compound 8 µM) it was 0.247; with Olaparib + Palbociclib (first compound 0.08 µM) it was 0.452; with Olaparib + Palbociclib (first compound 0.253 µM), 0.346. For the same cell line, the relative viability amounted to 0.419 in the assay with Olaparib + Palbociclib (first compound 2.53 µM); 0.343 in the assay with Olaparib + Palbociclib (first compound 8 µM); 0.613 in the assay with Crizotinib + Pictilisib (first compound 0.01 µM); 0.709 with Crizotinib + Pictilisib (first compound 0.03162 µM); 0.557 with Crizotinib + Pictilisib (first compound 0.1 µM); 0.686 with Crizotinib + Pictilisib (first compound 0.3162 µM). The relative viability with Crizotinib + Pictilisib (first compound 1 µM) was determined as 0.567; with Olaparib + Pictilisib (first compound 0.08 µM) it was 0.608; with Olaparib + Pictilisib (first compound 0.253 µM), 0.569; with Olaparib + Pictilisib (first compound 2.53 µM) it was 0.602; in the assay with Olaparib + Pictilisib (first compound 8 µM) it was 0.353.

With LXF-289, the relative viability in the assay with Olaparib + Tozasertib (first compound 0.08 µM) was 0.232; in the assay with Olaparib + Tozasertib (first compound 0.253 µM), 0.146; with Olaparib + Tozasertib (first compound 2.53 µM), 0.159; with Olaparib + Tozasertib (first compound 8 µM), 0.156; with Olaparib + Palbociclib (first compound 0.08 µM) it was 0.635; with Olaparib + Palbociclib (first compound 0.253 µM) it was 0.6. Further, the relative viability in the assay with Olaparib + Palbociclib (first compound 2.53 µM) amounted to 0.684; with Olaparib + Palbociclib (first compound 8 µM), 0.689; with Crizotinib + Pictilisib (first compound 0.01 µM) it was 0.757; with Crizotinib + Pictilisib (first compound 0.03162 µM), 0.803; with Crizotinib + Pictilisib (first compound 0.1 µM) it was 0.726; in the assay with Crizotinib + Pictilisib (first compound 0.3162 µM) it was 0.757. Also, the relative viability was 0.782 with Crizotinib + Pictilisib (first compound 1 µM); 0.825 in the assay with Olaparib + Pictilisib (first compound 0.08 µM); 0.713 with Olaparib + Pictilisib (first compound 0.253 µM); 0.729 in the assay with Olaparib + Pictilisib (first compound 2.53 µM); 0.74 with Olaparib + Pictilisib (first compound 8 µM).

With NCI-H2009, the relative viability with Olaparib + Tozasertib (first compound 0.08 µM) was found to be 0.81; with Olaparib + Tozasertib (first compound 0.253 µM) it was 0.678; in the assay with Olaparib + Tozasertib (first compound 2.53 µM) it was 0.761; with Olaparib + Tozasertib (first compound 8 µM) it was 0.648; with Olaparib + Palbociclib (first compound 0.08 µM) it was 0.233; with Olaparib + Palbociclib (first compound 0.253 µM), 0.205. The relative viability turned out to be 0.194 with Olaparib + Palbociclib (first compound 2.53 µM); 0.17 with Olaparib + Palbociclib (first compound 8 µM); 0.607 with Crizotinib + Pictilisib (first compound 0.01 µM); 0.83 with Crizotinib + Pictilisib (first compound 0.03162 µM); 0.799 with Crizotinib + Pictilisib (first compound 0.1 µM); 0.688 with Crizotinib + Pictilisib (first compound 0.3162 µM). Further, the relative viability with Crizotinib + Pictilisib (first compound 1 µM) was 0.782; with Olaparib + Pictilisib (first compound 0.08 µM) it was 0.996; with Olaparib + Pictilisib (first compound 0.253 µM) it was 0.71; in the assay with Olaparib + Pictilisib (first compound 2.53 µM) it was 0.693; with Olaparib + Pictilisib (first compound 8 µM) it was 0.475.

With HCC-827, the relative viability came to 0.414 with Olaparib + Tozasertib (first compound 0.08 µM); 0.376 with Olaparib + Tozasertib (first compound 0.253 µM); 0.399 with Olaparib + Tozasertib (first compound 2.53 µM); 0.378 in the assay with Olaparib + Tozasertib (first compound 8 µM); 0.534 with Olaparib + Palbociclib (first compound 0.08 µM); 0.494 with Olaparib + Palbociclib (first compound 0.253 µM). Further, the relative viability was determined as 0.474 in the assay with Olaparib + Palbociclib (first compound 2.53 µM); 0.387 with Olaparib + Palbociclib (first compound 8 µM); 1.1 with Crizotinib + Pictilisib (first compound 0.01 µM); 1.03 with Crizotinib + Pictilisib (first compound 0.03162 µM); 0.943 in the assay with Crizotinib + Pictilisib (first compound 0.1 µM); 0.96 with Crizotinib + Pictilisib (first compound 0.3162 µM). The relative viability came out at 0.961 in the assay with Crizotinib + Pictilisib (first compound 1 µM); 0.905 in the assay with Olaparib + Pictilisib (first compound 0.08 µM); 0.781 in the assay with Olaparib + Pictilisib (first compound 0.253 µM); 1.07 in the assay with Olaparib + Pictilisib (first compound 2.53 µM); 0.95 in the assay with Olaparib + Pictilisib (first compound 8 µM).

As to NCI-H3122, the relative viability with Olaparib + Tozasertib (first compound 0.08 µM) turned out to be 0.466; with Olaparib + Tozasertib (first compound 0.253 µM) it was 0.376; in the assay with Olaparib + Tozasertib (first compound 2.53 µM), 0.457; in the assay with Olaparib + Tozasertib (first compound 8 µM) it was 0.346; with Olaparib + Palbociclib (first compound 0.08 µM) it was 0.206; with Olaparib + Palbociclib (first compound 0.253 µM), 0.193. In addition, the relative viability with Olaparib + Palbociclib (first compound 2.53 µM) is 0.194; with Olaparib + Palbociclib (first compound 8 µM), 0.188; in the assay with Crizotinib + Pictilisib (first compound 0.01 µM) it was 0.533; in the assay with Crizotinib + Pictilisib (first compound 0.03162 µM), 0.6; with Crizotinib + Pictilisib (first compound 0.1 µM), 0.609; in the assay with Crizotinib + Pictilisib (first compound 0.3162 µM), 0.434. Moreover, the relative viability in the assay with Crizotinib + Pictilisib (first compound 1 µM) was determined as 0.27; with Olaparib + Pictilisib (first compound 0.08 µM) it was 0.629; with Olaparib + Pictilisib (first compound 0.253 µM) it was 0.532; with Olaparib + Pictilisib (first compound 2.53 µM), 0.587; in the assay with Olaparib + Pictilisib (first compound 8 µM), 0.627.

For NCI-H2126, the relative viability in the assay with Olaparib + Tozasertib (first compound 0.08 µM) is 0.915; with Olaparib + Tozasertib (first compound 0.253 µM), 0.794; with Olaparib + Tozasertib (first compound 2.53 µM), 0.869; in the assay with Olaparib + Tozasertib (first compound 8 µM), 0.83; with Olaparib + Palbociclib (first compound 0.08 µM), 0.374; with Olaparib + Palbociclib (first compound 0.253 µM), 0.364. Moreover, the relative viability with Olaparib + Palbociclib (first compound 2.53 µM) is 0.343; with Olaparib + Palbociclib (first compound 8 µM), 0.35; in the assay with Crizotinib + Pictilisib (first compound 0.01 µM), 0.456; with Crizotinib + Pictilisib (first compound 0.03162 µM), 0.5; in the assay with Crizotinib + Pictilisib (first compound 0.1 µM) it was 0.481; with Crizotinib + Pictilisib (first compound 0.3162 µM), 0.429. Moreover, the relative viability with Crizotinib + Pictilisib (first compound 1 µM) worked out at 0.48; in the assay with Olaparib + Pictilisib (first compound 0.08 µM), 0.544; with Olaparib + Pictilisib (first compound 0.253 µM), 0.504; with Olaparib + Pictilisib (first compound 2.53 µM), 0.513; with Olaparib + Pictilisib (first compound 8 µM), 0.556.
